23 compounds from the supplement of paper PMC12613149 can be followed below.

Series [1] is described as follows: reversed-phase LC retention time (C18, 15 min MeOH gradient); higher = more hydrophobic / later elution.
Series [2] can be described thus: collision cross section (TIMS, N2 drift gas) of the primary ion; higher = larger gas-phase ion size.
[3] abbreviates: ionization mode: ESI+, ion species: [M+H]+.
Where [4] appears, read: ionization mode: ESI-, ion species: [M-H]-.
[5] abbreviates: ionization mode: ESI+, ion species: [M]+.

Turning to `O=C(Nc1ccc(F)cc1F)c1cccnc1Oc1cccc(C(F)(F)F)c1` [Diflufenican], the “reversed-phase LC retention time” value in series [1] (setting [3]) worked out at 16.2 min; in series [1] (setting [4]) it was 16.7 min. Also, the collision cross section turned out to be 189.49 Å² in series [2] (setting [3]) and 181.03 Å² in series [2] (setting [4]).

`CC(C)CCCCOC(=O)c1ccccc1C(=O)OCCCCC(C)C` [Diisoheptyl phthalate]: the “reversed-phase LC retention time” value in series [1] (setting [3]) turned out to be 18.6 min. The compound also displayed a collision cross section in series [2] (setting [3]) of 204.46 Å².

Turning to `CC(C)OC(=O)CCCCCCCCC(=O)OC(C)C` [Diisopropyl sebacate], in series [1] (setting [3]), the “reversed-phase LC retention time” value is 17 min. In addition, the collision cross section in series [2] (setting [3]) was found to be 172.78 Å².

With `COc1ccc([C@@H]2Sc3ccccc3N(CCN(C)C)C(=O)[C@@H]2OC(C)=O)cc1` [Diltiazem], the “reversed-phase LC retention time” value in series [1] (setting [3]) amounted to 12.1 min. For the same compound, the collision cross section in series [2] (setting [3]) came to 198.45 Å².

Consider `COCCN(C(=O)CS(=O)(=O)O)c1c(C)cccc1C` [Dimethachlor ESA], for which the “reversed-phase LC retention time” value came to 10 min in series [1] (setting [3]) and 9.95 min in series [1] (setting [4]). The collision cross section in series [2] (setting [3]) stood at 164.03 Å²; in series [2] (setting [4]), 167.03 Å².

Regarding `COCCN(C(=O)CCl)c1c(C)cccc1C` [Dimethachlor], in series [1] (setting [3]), the “reversed-phase LC retention time” value came to 13.3 min. In addition, the collision cross section in series [2] (setting [3]) was 152.09 Å².

Consider `COCC(C)N(C(=O)CS(=O)(=O)O)c1c(C)csc1C` (stereo not given) [Dimethenamid ESA], for which the “reversed-phase LC retention time” value in series [1] (setting [3]) and in series [1] (setting [4]) was 10.9 min each time. The results for the collision cross section in series [2] (setting [3]) and in series [2] (setting [4]) were 166.05 Å² and 168.76 Å², respectively.

For the compound `COCC(C)N(C(=O)C(=O)O)c1c(C)csc1C` (stereo not given) [Dimethenamid OA], the “reversed-phase LC retention time” value in series [1] (setting [3]) is 11.3 min; in series [1] (setting [4]), 10.5 min. The results for the collision cross section in series [2] (setting [3]) and in series [2] (setting [4]) were 155.28 Å² and 161.26 Å², respectively.

In the case of `COCC(C)N(C(=O)CCl)c1c(C)csc1C` (stereo not given) [Dimethenamid], the “reversed-phase LC retention time” value in series [1] (setting [3]) is 14 min. This compound also gave a collision cross section in series [2] (setting [3]) of 155.6 Å².

Turning to `CC(C1=C(CCN(C)C)Cc2ccccc21)c1ccccn1` (stereo not given) [Dimethindene], the “reversed-phase LC retention time” value in series [1] (setting [3]) amounted to 10.4 min. This compound also showed a collision cross section in series [2] (setting [3]) of 171.03 Å².

As to `CNC(=O)CSP(=S)(OC)OC` [Dimethoate], the “reversed-phase LC retention time” value in series [1] (setting [3]) turned out to be 9.08 min. Moreover, the collision cross section in series [2] (setting [3]) was found to be 141.81 Å².

On to `COC(=O)c1cc(C(=O)OC)cc(S(=O)(=O)O)c1` [Dimethyl-5-sulfoisophthalate], for which the “reversed-phase LC retention time” value in series [1] (setting [4]) was determined as 8.33 min. In series [2] (setting [4]), this compound came in with a collision cross section of 162.37 Å².

In the case of `Cc1c(N(C)C)c(=O)n(-c2ccccc2)n1C` [Dimethylaminophenazone], the “reversed-phase LC retention time” value in series [1] (setting [3]) turned out to be 6.95 min. Besides, in series [2] (setting [3]), the collision cross section was found to be 151.98 Å².

As to `CCCCCCCCCCCCCCCCCC[N+](C)(C)CCCCCCCCCCCCCCCCCC` [Dimethyldioctadecylammonium], the “reversed-phase LC retention time” value in series [1] (setting [5]) was determined as 21.1 min. The same compound came in with a collision cross section in series [2] (setting [5]) of 272.56 Å².

`COc1cc2ccc(=O)oc2c(OC)c1OC` [Dimethylfraxetin]: the “reversed-phase LC retention time” value in series [1] (setting [3]) worked out at 10.6 min. Also, in series [2] (setting [3]), the collision cross section is reported as 147.68 Å².

For `CNC(=O)/C(=N/OC)c1ccccc1COc1cc(C)ccc1C` [Dimoxystrobin], the “reversed-phase LC retention time” value in series [1] (setting [3]) was 15.3 min. Further, the collision cross section in series [2] (setting [3]) is recorded as 178.04 Å².

Regarding `CCC(C)c1cc([N+](=O)[O-])cc([N+](=O)[O-])c1O` (stereo not given) [Dinoseb], in series [1] (setting [4]), the “reversed-phase LC retention time” value was found to be 12.3 min. In series [2] (setting [4]), this compound showed a collision cross section of 149.61 Å².

For `C/N=C(/NCC1CCOC1)N[N+](=O)[O-]` (stereo not given) [Dinotefuran], the “reversed-phase LC retention time” value in series [1] (setting [3]) worked out at 6.27 min; in series [1] (setting [4]), 6.46 min. The collision cross section in series [2] (setting [3]) was 141.96 Å²; in series [2] (setting [4]) it was 146.7 Å².

For the compound `CC(C)(C)c1cc([N+](=O)[O-])cc([N+](=O)[O-])c1O` [Dinoterb], the “reversed-phase LC retention time” value in series [1] (setting [4]) turned out to be 12.5 min. This compound came in with a collision cross section in series [2] (setting [4]) of 149.2 Å².

With `CCCCC(CC)COC(=O)CC(C(=O)OCC(CC)CCCC)S(=O)(=O)O` (stereo not given) [Dioctylsulfosuccinate], the “reversed-phase LC retention time” value in series [1] (setting [3]) and in series [1] (setting [4]) was 17.1 min throughout. Besides, the collision cross section is 222.09 Å² in series [2] (setting [3]) and 208.23 Å² in series [2] (setting [4]).

Regarding `CN(C)CCOC(c1ccccc1)c1ccccc1` [Diphenhydramine], the “reversed-phase LC retention time” value in series [1] (setting [3]) came out at 11.6 min. The same compound registered a collision cross section in series [2] (setting [3]) of 162.95 Å².

Consider `O=P(O)(Oc1ccccc1)Oc1ccccc1` [Diphenylphosphate], for which the “reversed-phase LC retention time” value in series [1] (setting [3]) is 17.6 min; in series [1] (setting [4]), 10.8 min. The collision cross section in series [2] (setting [3]) is 155.07 Å²; in series [2] (setting [4]) it was 152.14 Å².

With `CCN(CCC#N)c1ccc(N=Nc2c(Br)cc([N+](=O)[O-])cc2Br)cc1` [Disperse Orange 61], the “reversed-phase LC retention time” value in series [1] (setting [3]) amounted to 16.8 min. The compound further came in with a collision cross section in series [2] (setting [3]) of 202.21 Å².
